# From ChEMBL document CHEMBL3085700 (J Med Chem, 2013)
# Activity calls are given as the source filed them. The rule behind the calls is not given here.
# Assays:
# [1] = molecular target: T1, Fatty-acid amide hydrolase 1 (Mus musculus) (UniProt O08914); details: Brain, Membrane, 10 uM
# T1 sequence (whole entry): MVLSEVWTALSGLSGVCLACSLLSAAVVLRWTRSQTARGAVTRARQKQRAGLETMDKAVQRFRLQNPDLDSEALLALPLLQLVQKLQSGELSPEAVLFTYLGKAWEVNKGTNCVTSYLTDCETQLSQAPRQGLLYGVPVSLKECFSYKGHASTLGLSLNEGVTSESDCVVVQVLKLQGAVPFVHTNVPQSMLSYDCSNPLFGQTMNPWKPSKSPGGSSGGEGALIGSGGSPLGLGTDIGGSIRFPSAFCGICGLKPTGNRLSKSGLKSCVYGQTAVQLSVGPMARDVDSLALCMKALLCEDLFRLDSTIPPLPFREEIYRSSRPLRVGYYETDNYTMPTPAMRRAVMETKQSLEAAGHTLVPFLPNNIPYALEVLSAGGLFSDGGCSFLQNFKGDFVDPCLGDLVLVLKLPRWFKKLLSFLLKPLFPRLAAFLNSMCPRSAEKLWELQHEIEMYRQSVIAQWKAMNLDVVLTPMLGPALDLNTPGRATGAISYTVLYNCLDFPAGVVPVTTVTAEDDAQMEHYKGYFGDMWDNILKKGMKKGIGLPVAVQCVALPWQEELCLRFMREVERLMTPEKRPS
# Description: Inhibition of TAMRA-FP-labeled FAAH in mouse brain membrane at 10 uM after 1 hr by fluorescent gel scanning assay
# [2] = molecular target: T2, Monoacylglycerol lipase ABHD6 (Homo sapiens) (UniProt Q9BV23); assay: Inhibition of human ABHD6 overexpressed in HEK293 cells assessed as 2-AG hydrolysis at 1 uM by fluorescent glycerol assay; format: cell-based
# T2 sequence (whole entry): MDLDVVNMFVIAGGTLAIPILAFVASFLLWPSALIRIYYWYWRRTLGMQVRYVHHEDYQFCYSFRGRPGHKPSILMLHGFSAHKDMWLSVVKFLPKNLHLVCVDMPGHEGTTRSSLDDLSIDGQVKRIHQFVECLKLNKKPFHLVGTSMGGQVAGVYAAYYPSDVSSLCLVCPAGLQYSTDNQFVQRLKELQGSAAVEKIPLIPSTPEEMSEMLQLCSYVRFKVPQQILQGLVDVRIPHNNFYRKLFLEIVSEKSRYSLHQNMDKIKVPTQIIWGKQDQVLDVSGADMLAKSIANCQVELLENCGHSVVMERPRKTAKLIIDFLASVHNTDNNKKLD
# [3] = molecular target: T3, Prostaglandin G/H synthase 1 (Ovis aries) (UniProt P05979); assay: Inhibition of ovine COX-1 using arachidonic acid as substrate assessed as oxygen consumption at 100 uM measured within 10 to 50 secs
# T3 sequence (whole entry): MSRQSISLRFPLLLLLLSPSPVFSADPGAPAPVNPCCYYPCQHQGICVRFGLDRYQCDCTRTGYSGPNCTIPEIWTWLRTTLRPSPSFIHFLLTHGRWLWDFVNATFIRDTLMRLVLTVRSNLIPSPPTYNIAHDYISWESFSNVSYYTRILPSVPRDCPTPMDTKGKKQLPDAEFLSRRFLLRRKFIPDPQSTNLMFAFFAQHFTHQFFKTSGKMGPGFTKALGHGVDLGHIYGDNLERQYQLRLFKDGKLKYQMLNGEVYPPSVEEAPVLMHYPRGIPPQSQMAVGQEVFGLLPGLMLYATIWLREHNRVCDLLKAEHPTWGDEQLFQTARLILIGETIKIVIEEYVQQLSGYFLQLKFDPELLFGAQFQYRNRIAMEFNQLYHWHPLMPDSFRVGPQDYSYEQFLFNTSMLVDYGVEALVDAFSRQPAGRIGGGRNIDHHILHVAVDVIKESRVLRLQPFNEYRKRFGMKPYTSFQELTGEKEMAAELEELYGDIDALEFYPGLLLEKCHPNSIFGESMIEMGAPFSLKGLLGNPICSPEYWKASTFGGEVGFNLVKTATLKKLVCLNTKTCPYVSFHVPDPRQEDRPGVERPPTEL
# [4] = molecular target: T4, Prostaglandin G/H synthase 2 (Homo sapiens) (UniProt P35354); assay: Inhibition of human recombinant COX-2 assessed as inhibition of arachidonic acid cyclooxygenation at 10 uM measured within 10 to 50 secs relative to control
# T4 sequence (whole entry): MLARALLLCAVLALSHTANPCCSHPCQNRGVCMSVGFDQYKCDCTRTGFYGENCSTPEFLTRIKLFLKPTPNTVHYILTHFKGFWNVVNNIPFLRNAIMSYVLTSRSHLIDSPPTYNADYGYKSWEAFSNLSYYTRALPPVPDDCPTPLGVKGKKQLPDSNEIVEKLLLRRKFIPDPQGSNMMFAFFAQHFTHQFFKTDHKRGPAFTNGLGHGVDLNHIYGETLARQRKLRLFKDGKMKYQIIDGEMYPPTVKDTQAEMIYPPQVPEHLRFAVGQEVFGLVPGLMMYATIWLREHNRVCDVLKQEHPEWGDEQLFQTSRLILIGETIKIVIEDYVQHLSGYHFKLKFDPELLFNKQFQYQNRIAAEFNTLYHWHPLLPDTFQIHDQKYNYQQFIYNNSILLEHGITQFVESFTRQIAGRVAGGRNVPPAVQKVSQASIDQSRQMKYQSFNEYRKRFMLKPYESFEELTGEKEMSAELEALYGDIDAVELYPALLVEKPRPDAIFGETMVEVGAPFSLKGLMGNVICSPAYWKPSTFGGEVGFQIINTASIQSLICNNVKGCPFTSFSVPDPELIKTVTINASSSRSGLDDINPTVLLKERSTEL
# [5] = molecular target: T4, Prostaglandin G/H synthase 2 (Homo sapiens); assay: Inhibition of human recombinant COX-2 assessed as inhibition of 2-AG cyclooxygenation at 100 uM measured within 10 to 50 secs relative to control
# [6] = molecular target: T4, Prostaglandin G/H synthase 2 (Homo sapiens); assay: Inhibition of human recombinant COX-2 assessed as inhibition of 2-AG cyclooxygenation at 10 uM measured within 10 to 50 secs relative to control
# [7] = molecular target: T5, Lysophosphatidylserine lipase ABHD12 (Homo sapiens) (UniProt Q8N2K0); assay: Inhibition of human ABHD12 overexpressed in HEK293 cells assessed as 2-AG hydrolysis at 1 uM by fluorescent glycerol assay; format: cell-based
# T5 sequence (whole entry): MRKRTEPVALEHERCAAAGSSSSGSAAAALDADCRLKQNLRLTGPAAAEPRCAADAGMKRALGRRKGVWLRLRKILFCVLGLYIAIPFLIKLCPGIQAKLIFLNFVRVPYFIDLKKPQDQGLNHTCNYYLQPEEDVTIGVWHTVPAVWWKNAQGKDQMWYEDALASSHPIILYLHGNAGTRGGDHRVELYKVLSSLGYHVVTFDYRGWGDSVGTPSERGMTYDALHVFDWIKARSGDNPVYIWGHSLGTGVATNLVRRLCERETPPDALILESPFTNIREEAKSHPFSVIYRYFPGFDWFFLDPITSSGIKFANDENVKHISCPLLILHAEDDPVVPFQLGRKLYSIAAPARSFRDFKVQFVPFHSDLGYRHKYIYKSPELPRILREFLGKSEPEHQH
# [8] = molecular target: T4, Prostaglandin G/H synthase 2 (Homo sapiens); assay: Inhibition of human recombinant COX-2 assessed as inhibition of arachidonic acid cyclooxygenation at 100 uM measured within 10 to 50 secs relative to control
# [9] = molecular target: T4, Prostaglandin G/H synthase 2 (Homo sapiens); assay: Inhibition of human recombinant COX-2 assessed as inhibition of 2-AG cyclooxygenation at 30 uM measured within 10 to 50 secs relative to control
# [10] = molecular target: T3, Prostaglandin G/H synthase 1 (Ovis aries); assay: Inhibition of ovine COX-1 using arachidonic acid as substrate assessed as oxygen consumption at 10 uM measured within 10 to 50 secs
# [11] = molecular target: T3, Prostaglandin G/H synthase 1 (Ovis aries); assay: Inhibition of ovine COX-1 using arachidonic acid as substrate assessed as oxygen consumption at 30 uM measured within 10 to 50 secs
# [12] = molecular target: T6, Monoglyceride lipase (Homo sapiens, UniProt Q99685); assay: Inhibition of human recombinant MAGL overexpressed in HEK cells using 2-AG as substrate preincubated for 10 mins before substrate addition measured after 10 mins by HPLC analysis; format: cell-based, HEK293
# T6 sequence (Q99685 whole entry): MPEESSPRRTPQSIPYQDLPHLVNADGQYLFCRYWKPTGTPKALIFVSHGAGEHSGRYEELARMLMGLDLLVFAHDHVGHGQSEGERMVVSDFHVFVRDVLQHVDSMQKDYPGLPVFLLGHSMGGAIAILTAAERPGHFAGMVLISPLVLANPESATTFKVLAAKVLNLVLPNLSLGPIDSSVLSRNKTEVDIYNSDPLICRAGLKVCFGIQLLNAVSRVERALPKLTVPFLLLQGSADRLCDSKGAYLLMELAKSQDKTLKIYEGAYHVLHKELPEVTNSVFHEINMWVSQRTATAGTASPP
# [13] = molecular target: T7, Fatty-acid amide hydrolase 1 (Homo sapiens, UniProt O00519); assay: Inhibition of human recombinant FAAH overexpressed in African green monkey COS7 cells using [3H]-anandamide as substrate preincubated for 10 mins before substrate addition measured after 10 mins by liquid scintillation counting analysis; format: cell-based, COS-7
# T7 sequence (O00519 whole entry): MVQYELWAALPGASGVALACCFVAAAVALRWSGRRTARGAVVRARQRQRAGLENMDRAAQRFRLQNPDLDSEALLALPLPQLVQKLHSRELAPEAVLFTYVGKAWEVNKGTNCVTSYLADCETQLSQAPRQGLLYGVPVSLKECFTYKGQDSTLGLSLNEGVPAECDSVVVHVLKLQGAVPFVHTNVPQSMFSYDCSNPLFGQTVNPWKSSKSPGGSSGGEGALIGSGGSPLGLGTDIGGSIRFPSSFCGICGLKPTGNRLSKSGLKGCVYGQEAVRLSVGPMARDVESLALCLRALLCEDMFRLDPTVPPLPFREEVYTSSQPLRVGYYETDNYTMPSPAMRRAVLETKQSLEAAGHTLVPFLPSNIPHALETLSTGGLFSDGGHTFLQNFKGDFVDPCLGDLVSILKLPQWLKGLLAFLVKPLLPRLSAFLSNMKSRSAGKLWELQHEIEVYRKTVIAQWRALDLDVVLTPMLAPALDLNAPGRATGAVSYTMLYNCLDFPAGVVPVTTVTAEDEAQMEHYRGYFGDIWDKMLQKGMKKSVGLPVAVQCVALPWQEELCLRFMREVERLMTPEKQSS
# [14] = molecular target: T4, Prostaglandin G/H synthase 2 (Homo sapiens); assay: Inhibition of human recombinant COX-2 assessed as inhibition of arachidonic acid cyclooxygenation at 30 uM measured within 10 to 50 secs relative to control
# [15] = molecular target: T8, Fatty-acid amide hydrolase 1 (Homo sapiens) (UniProt O00519); assay: Reversible inhibition of human recombinant FAAH overexpressed in African green monkey COS7 cells using […] as substrate assessed as recovery of enzyme activity at 20 x IC50 preincubated for 60 mins followed by 500 fold dilution measured after 10 mins by HPLC analysis; format: cell-based; details: COS-7
# T8 sequence (whole entry): T7 sequence (O00519 whole entry)
# [16] = molecular target: T8, Fatty-acid amide hydrolase 1 (Homo sapiens); assay: Inhibition of human recombinant FAAH overexpressed in African green monkey COS7 cells using [3H]-anandamide as substrate at 30 uM preincubated for 10 to 60 mins by liquid scintillation counting analysis; details: COS-7
SMILES,inhibition [1],inhibition [2],inhibition [3] [%],inhibition [4] [%],inhibition [5] [%],inhibition [6] [%],inhibition [7],inhibition [8] [%],inhibition [9] [%],inhibition [10],inhibition [11] [%],IC50 ([12]; read-out: IC50) [nM],IC50 ([12]; read-out: pIC50 (converted)) [nM],IC50 ([13]; read-out: IC50) [nM],IC50 ([13]; read-out: pIC50 (converted)) [nM],inhibition [14] [%],inhibition [15],inhibition [16]
O=C(Oc1ccc([N+](=O)[O-])cc1)N1CCN(Cc2cccc(Oc3ccccc3)c2)CC1,Active,,,,,,,,,,,,,,,,,
COc1nn([C@H](C)c2ccc(CC(C)C)cc2)c(=O)o1,,inactive,20,30,30,20,inactive,50,10,inactive,10,4000,13500,240,245,40,,
CCCCCCCCCCCC(=O)c1nc2ncccc2o1,,,,,,,,,,,,,,17,16.6,,Active,inactive
